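Exposure lasted 48 hours, with cells grown in 96-well plates and compounds tested at five concentrations. Definition used: TGI = concentration required for complete inhibition of growth.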
Columns and labels:
Assay in all cases: NCI anticancer screen, dose series, 48 h
EKVX NSCLC = system: EKVX NSCLC
U251 CNS = system: U251 CNS
NCI-H522 lung = system: NCI-H522 lung
KM12 colon = system: KM12 colon
UACC-257 melanoma = system: UACC-257 melanoma
HOP-92 NSCLC = system: HOP-92 NSCLC
SN12C renal = system: SN12C renal
NCI-H23 lung = system: NCI-H23 lung
HL-60(TB) leukemia = system: HL-60(TB) leukemia
IGROV1 ovarian = system: IGROV1 ovarian
SNB-19 CNS = system: SNB-19 CNS
MDA-N = system: MDA-N
SF-295 CNS = system: SF-295 CNS
SK-OV-3 ovarian = system: SK-OV-3 ovarian
CCRF-CEM leukemia = system: CCRF-CEM leukemia
SK-MEL-5 melanoma = system: SK-MEL-5 melanoma
SK-MEL-28 melanoma = system: SK-MEL-28 melanoma
LOX IMVI melanoma = system: LOX IMVI melanoma
SR leukemia = system: SR leukemia
NCI-H226 lung = system: NCI-H226 lung

## Cc1cc(S(=O)(=O)Nc2nc3ccccc3[nH]2)c(S)cc1Cl
EKVX NSCLC
  TGI: 99.5 µM
U251 CNS
  TGI: 78.3 µM
NCI-H522 lung
  TGI: > 100 µM
KM12 colon
  TGI: > 100 µM
UACC-257 melanoma
  TGI: > 100 µM
HOP-92 NSCLC
  TGI: > 100 µM
SN12C renal
  TGI: > 100 µM
NCI-H23 lung
  TGI: > 100 µM
HL-60(TB) leukemia
  TGI: > 100 µM
IGROV1 ovarian
  TGI: > 100 µM
SNB-19 CNS
  TGI: > 100 µM
MDA-N
  TGI: > 100 µM
SF-295 CNS
  TGI: > 100 µM
SK-OV-3 ovarian
  TGI: > 100 µM
CCRF-CEM leukemia
  TGI: 80.6 µM
SK-MEL-5 melanoma
  TGI: > 100 µM
SK-MEL-28 melanoma
  TGI: 73.5 µM
LOX IMVI melanoma
  TGI: 39.8 µM
SR leukemia
  TGI: > 100 µM

## COc1cc(C2=C(C)[C@@H]3CN(CC=C3c3ccc(Cl)cc3)C2)c(S(=O)(=O)O)cc1OC
EKVX NSCLC
  TGI: > 100 µM
U251 CNS
  TGI: > 100 µM
NCI-H522 lung
  TGI: > 100 µM
KM12 colon
  TGI: > 100 µM
UACC-257 melanoma
  TGI: > 100 µM
HOP-92 NSCLC
  TGI: > 100 µM
SN12C renal
  TGI: > 100 µM
NCI-H23 lung
  TGI: > 100 µM
IGROV1 ovarian
  TGI: > 100 µM
SNB-19 CNS
  TGI: > 100 µM
MDA-N
  TGI: > 100 µM
SF-295 CNS
  TGI: > 100 µM
SK-OV-3 ovarian
  TGI: > 100 µM
CCRF-CEM leukemia
  TGI: > 100 µM
SK-MEL-5 melanoma
  TGI: > 100 µM
SK-MEL-28 melanoma
  TGI: > 100 µM
LOX IMVI melanoma
  TGI: > 100 µM
SR leukemia
  TGI: > 100 µM
NCI-H226 lung
  TGI: > 100 µM

## CN(C)CCn1c(=O)oc2cc(C(=O)CN3CCOCC3)ccc21
EKVX NSCLC
  TGI: > 100 µM
U251 CNS
  TGI: > 100 µM
KM12 colon
  TGI: > 100 µM
UACC-257 melanoma
  TGI: > 100 µM
SN12C renal
  TGI: > 100 µM
NCI-H23 lung
  TGI: > 100 µM
HL-60(TB) leukemia
  TGI: > 100 µM
IGROV1 ovarian
  TGI: > 100 µM
SNB-19 CNS
  TGI: > 100 µM
MDA-N
  TGI: > 100 µM
SF-295 CNS
  TGI: > 100 µM
SK-OV-3 ovarian
  TGI: > 100 µM
CCRF-CEM leukemia
  TGI: > 100 µM
SK-MEL-5 melanoma
  TGI: > 100 µM
SK-MEL-28 melanoma
  TGI: > 100 µM
LOX IMVI melanoma
  TGI: > 100 µM
SR leukemia
  TGI: > 100 µM
NCI-H226 lung
  TGI: > 100 µM

## Cc1ccc(C(=O)OC(C)C)cc1N=NN(C)C
EKVX NSCLC
  TGI: > 100 µM
U251 CNS
  TGI: > 100 µM
NCI-H522 lung
  TGI: > 100 µM
KM12 colon
  TGI: > 100 µM
UACC-257 melanoma
  TGI: 81.9 µM
HOP-92 NSCLC
  TGI: > 100 µM
SN12C renal
  TGI: > 100 µM
NCI-H23 lung
  TGI: > 100 µM
HL-60(TB) leukemia
  TGI: > 100 µM
IGROV1 ovarian
  TGI: > 100 µM
SNB-19 CNS
  TGI: > 100 µM
MDA-N
  TGI: > 100 µM
SF-295 CNS
  TGI: > 100 µM
SK-OV-3 ovarian
  TGI: > 100 µM
CCRF-CEM leukemia
  TGI: > 100 µM
SK-MEL-5 melanoma
  TGI: > 100 µM
SK-MEL-28 melanoma
  TGI: > 100 µM
LOX IMVI melanoma
  TGI: > 100 µM
SR leukemia
  TGI: > 100 µM

## FC(F)(F)c1ccc2c(c1)nc(Cc1ccc(Cl)c(Cl)c1)n2CC1CCCN2CCCCC12 (stereo not given)
EKVX NSCLC
  TGI: 80.3 µM
U251 CNS
  TGI: 59.7 µM
NCI-H522 lung
  TGI: 30.8 µM
KM12 colon
  TGI: > 100 µM
UACC-257 melanoma
  TGI: 41 µM
HOP-92 NSCLC
  TGI: > 100 µM
SN12C renal
  TGI: 42.8 µM
HL-60(TB) leukemia
  TGI: 51.3 µM
IGROV1 ovarian
  TGI: > 100 µM
SNB-19 CNS
  TGI: 53.1 µM
MDA-N
  TGI: 38.8 µM
SF-295 CNS
  TGI: 51.7 µM
SK-OV-3 ovarian
  TGI: 90 µM
SK-MEL-5 melanoma
  TGI: 30.3 µM
SK-MEL-28 melanoma
  TGI: 53.8 µM
LOX IMVI melanoma
  TGI: 31.6 µM
SR leukemia
  TGI: 74.6 µM
NCI-H226 lung
  TGI: 90.7 µM

## N#Cc1c(N)c2c(c(-c3ccccc3)c1-c1ccccc1)C(=O)N(Nc1ccccc1)C2=O
EKVX NSCLC
  TGI: > 100 µM
U251 CNS
  TGI: > 100 µM
NCI-H522 lung
  TGI: > 100 µM
KM12 colon
  TGI: 56.4 µM
UACC-257 melanoma
  TGI: > 100 µM
HOP-92 NSCLC
  TGI: > 100 µM
SN12C renal
  TGI: > 100 µM
HL-60(TB) leukemia
  TGI: > 100 µM
IGROV1 ovarian
  TGI: > 100 µM
SNB-19 CNS
  TGI: > 100 µM
MDA-N
  TGI: > 100 µM
SF-295 CNS
  TGI: > 100 µM
CCRF-CEM leukemia
  TGI: > 100 µM
SK-MEL-5 melanoma
  TGI: 78.5 µM
SK-MEL-28 melanoma
  TGI: > 100 µM
LOX IMVI melanoma
  TGI: 86.8 µM
SR leukemia
  TGI: > 100 µM
NCI-H226 lung
  TGI: > 100 µM

## N#Cc1nc(Sc2cnsn2)c(Sc2cnsn2)nc1C#N
EKVX NSCLC
  TGI: 36.7 µM
U251 CNS
  TGI: > 90.1 µM
NCI-H522 lung
  TGI: 8.53 µM
KM12 colon
  TGI: 40.4 µM
UACC-257 melanoma
  TGI: 39 µM
HOP-92 NSCLC
  TGI: > 70.5 µM
SN12C renal
  TGI: 56.3 µM
NCI-H23 lung
  TGI: 46.2 µM
HL-60(TB) leukemia
  TGI: 6.24 µM
IGROV1 ovarian
  TGI: 37.3 µM
SNB-19 CNS
  TGI: > 78.1 µM
MDA-N
  TGI: 49.6 µM
SF-295 CNS
  TGI: > 58.8 µM
SK-OV-3 ovarian
  TGI: 32.1 µM
SK-MEL-5 melanoma
  TGI: 29.4 µM
SK-MEL-28 melanoma
  TGI: 53.6 µM
LOX IMVI melanoma
  TGI: 50.2 µM
SR leukemia
  TGI: > 100 µM
NCI-H226 lung
  TGI: 43.7 µM

## COc1ccc(/C=N/NC(=O)c2ccccc2Nc2ccccc2C(=O)N/N=C/c2ccc(OC)cc2)cc1
EKVX NSCLC
  TGI: > 100 µM
U251 CNS
  TGI: > 100 µM
KM12 colon
  TGI: > 100 µM
UACC-257 melanoma
  TGI: > 100 µM
HOP-92 NSCLC
  TGI: > 100 µM
SN12C renal
  TGI: > 100 µM
NCI-H23 lung
  TGI: > 100 µM
IGROV1 ovarian
  TGI: > 100 µM
SNB-19 CNS
  TGI: > 100 µM
MDA-N
  TGI: > 100 µM
SF-295 CNS
  TGI: > 100 µM
SK-OV-3 ovarian
  TGI: > 100 µM
CCRF-CEM leukemia
  TGI: > 100 µM
SK-MEL-5 melanoma
  TGI: > 100 µM
SK-MEL-28 melanoma
  TGI: > 100 µM
LOX IMVI melanoma
  TGI: > 100 µM
SR leukemia
  TGI: > 100 µM
NCI-H226 lung
  TGI: > 100 µM

## Cc1ccc(/C=N/Nc2cc(C)c3ccccc3n2)s1
EKVX NSCLC
  TGI: 27 µM
U251 CNS
  TGI: 43 µM
KM12 colon
  TGI: 38.5 µM
UACC-257 melanoma
  TGI: 50.7 µM
HOP-92 NSCLC
  TGI: 93.8 µM
SN12C renal
  TGI: 41.1 µM
NCI-H23 lung
  TGI: 96.3 µM
HL-60(TB) leukemia
  TGI: > 100 µM
IGROV1 ovarian
  TGI: 24.9 µM
SNB-19 CNS
  TGI: > 100 µM
MDA-N
  TGI: 37.6 µM
SF-295 CNS
  TGI: 32 µM
SK-OV-3 ovarian
  TGI: 43.2 µM
CCRF-CEM leukemia
  TGI: > 100 µM
SK-MEL-5 melanoma
  TGI: 75.2 µM
SK-MEL-28 melanoma
  TGI: > 100 µM
LOX IMVI melanoma
  TGI: 78.9 µM
SR leukemia
  TGI: > 100 µM
NCI-H226 lung
  TGI: 52.7 µM

## CC(C)(O)/C=C\P(C)(=O)c1ccccc1 (stereo not given)
EKVX NSCLC
  TGI: > 100 µM
U251 CNS
  TGI: > 100 µM
NCI-H522 lung
  TGI: > 100 µM
KM12 colon
  TGI: > 100 µM
UACC-257 melanoma
  TGI: > 100 µM
HOP-92 NSCLC
  TGI: > 100 µM
SN12C renal
  TGI: > 100 µM
NCI-H23 lung
  TGI: > 100 µM
IGROV1 ovarian
  TGI: > 100 µM
SNB-19 CNS
  TGI: > 100 µM
MDA-N
  TGI: > 100 µM
SF-295 CNS
  TGI: > 100 µM
SK-OV-3 ovarian
  TGI: > 100 µM
SK-MEL-5 melanoma
  TGI: > 100 µM
SK-MEL-28 melanoma
  TGI: > 100 µM
LOX IMVI melanoma
  TGI: > 100 µM
SR leukemia
  TGI: > 100 µM
NCI-H226 lung
  TGI: > 100 µM

## O=S(Nc1ccccc1)c1ccc(-c2ccccc2)cc1 (stereo not given)
EKVX NSCLC
  TGI: > 100 µM
U251 CNS
  TGI: > 100 µM
NCI-H522 lung
  TGI: > 100 µM
KM12 colon
  TGI: > 100 µM
UACC-257 melanoma
  TGI: > 100 µM
SN12C renal
  TGI: > 100 µM
NCI-H23 lung
  TGI: > 100 µM
HL-60(TB) leukemia
  TGI: > 100 µM
IGROV1 ovarian
  TGI: > 100 µM
SNB-19 CNS
  TGI: > 100 µM
MDA-N
  TGI: > 100 µM
SF-295 CNS
  TGI: > 100 µM
CCRF-CEM leukemia
  TGI: > 100 µM
SK-MEL-5 melanoma
  TGI: > 100 µM
SK-MEL-28 melanoma
  TGI: > 100 µM
LOX IMVI melanoma
  TGI: > 100 µM
SR leukemia
  TGI: > 100 µM
NCI-H226 lung
  TGI: > 100 µM

## NC(N)=NCc1ccc2c(c1)OCO2
EKVX NSCLC
  TGI: > 100 µM
U251 CNS
  TGI: > 100 µM
NCI-H522 lung
  TGI: > 100 µM
KM12 colon
  TGI: > 100 µM
HOP-92 NSCLC
  TGI: > 100 µM
NCI-H23 lung
  TGI: > 100 µM
HL-60(TB) leukemia
  TGI: > 100 µM
IGROV1 ovarian
  TGI: > 100 µM
SNB-19 CNS
  TGI: > 100 µM
MDA-N
  TGI: > 100 µM
SF-295 CNS
  TGI: > 100 µM
SK-OV-3 ovarian
  TGI: > 100 µM
CCRF-CEM leukemia
  TGI: > 100 µM
SK-MEL-5 melanoma
  TGI: 49.7 µM
SK-MEL-28 melanoma
  TGI: > 100 µM
LOX IMVI melanoma
  TGI: > 100 µM
SR leukemia
  TGI: > 100 µM

From PubChem BioAssay (NCI)
